PubChem BioAssay (NCI)
“And” between values parts separate entries of the source, which are not always exact repeats. Identical values can stand only once.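 48-hour exposure; five concentrations; linearly interpolated endpoints. Here, GI50 denotes the concentration required for 50% inhibition of growth. At the TGI there is no net growth.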

Tests used:
Assay in all cases: NCI-60 cell line screen, 48 h
[1] = system: BT-549 breast
[2] = system: HCC-2998 colon
[3] = system: HCT-15 colon
[4] = system: IGROV1 ovarian
[5] = system: MCF7 breast
[6] = system: SF-268 CNS
[7] = system: SK-MEL-2 melanoma
[8] = system: SN12C renal
[9] = system: SNB-75 CNS
[10] = system: T-47D breast

Row | Compound | GI50 [1] [µM] | TGI [1] [µM] | TGI [2] | GI50 [3] [µM] | TGI [3] [µM] | GI50 [4] [µM] | TGI [4] [µM] | GI50 [5] [µM] | TGI [5] [µM] | GI50 [6] [µM] | TGI [6] | GI50 [7] [µM] | TGI [7] | GI50 [8] [µM] | TGI [8] [µM] | GI50 [9] [µM] | TGI [9] | TGI [10] [µM] | GI50 [2] [µM] | GI50 [10] [µM]
1 | O=C(NCCCc1cn[nH]c1)c1ccc(-c2ccncc2)c(C#Cc2ccc(F)cc2)c1 | 0.369 | 60.9 | 26.1 µM | < 0.01 | > 57.9 | 0.0282 | > 100 | 1.9 | > 70.2 | 58.8 | > 100 µM | 11.5 | > 74.1 µM | < 0.01 | > 100 | 8.82 | > 100 µM | 11 |  | 
2 | COC(=O)Nc1nc2ccccc2[nH]1 |  | > 100 | > 100 µM |  | > 100 |  | > 100 |  | > 100 |  | > 100 µM |  | > 100 µM |  | > 100 |  | > 73.8 µM | > 100 |  | 
3 | N#CC1=C(N)Oc2c(ccc3ccccc23)C1c1cc(=O)oc2ccc(Cl)cc12 (configuration not stated) | 1.3 | 61.8 | 19.5 µM | 0.471 | 15.8 | 0.873 | > 100 | 0.347 | 22.1 | 2.02 | > 100 µM | 0.972 | 44.7 µM | 2.59 | 45.4 | 2.16 | > 100 µM | 24.1 | 2.72 | 0.646
4 | CS(=O)(=O)c1ccc(Nc2nc(N[C@H]3CCCC[C@H]3N)nc3cc[nH]c(=O)c23)cc1 | 1.63 | 5.51 | 4.49 µM | 26.7 | > 100 |  |  | 0.326 | 13.4 | 1.33 | 4.26 µM |  |  | 2.76 | > 100 | 1.29 | 3.51 µM | 77.6 | 1.52 | 0.891
5 | CN=C1C=CC(=C(c2ccc(N(C)C)cc2)c2ccc(N(C)C)cc2)C=C1 | 0.265 | 1.28 | 1.27 µM | 0.367 | 6.07 | 0.42 | 6.38 | 0.308 | 1.05 | 0.25 | 1.54 µM | 0.202 | 0.462 µM | 0.163 | 3.04 | 0.295 | 1.04 µM | 2.1 | 0.309 | 0.292
6 | CCN(CC)CCCC(C)Nc1cc(-c2cccc(OC(F)(F)F)c2)nc2ccc(N3CCCC3)cc12 (configuration not stated) | 0.201 | 3.39 | 2.98 µM | 0.0415 | 12.4 | 0.0941 | > 100 | 0.0353 | 22.5 | 0.196 | 19.8 µM | 0.598 | 27 µM | 0.124 | 16.1 | 0.0361 | 59.4 µM | > 100 | 0.224 | 0.0542
7 | Cc1cc(-c2c(F)cc3c4nn([C@H]5CC[C@@H](N(C)C)CC5)c(=O)c-4cn(C4CC4)c3c2F)cc(C)n1 |  | 10.8 | 0.108 µM and 1.01 µM |  |  | 0.278 |  |  | > 100 | 0.0285 | 0.151 µM and 0.89 µM | 0.0735 | 0.256 µM and 1.94 µM | 0.0207 | 0.0888 | 0.158 | 0.19 µM and 0.54 µM | 2.76 | 0.0369 | 
8 | S=C1Cc2c(-c3ccc(Br)cc3)cc(-c3ccccc3)nc2-c2ccccc2N1 |  | 18 | 11.3 µM |  | 14.6 |  | 2.94 |  | > 100 |  | 6.19 µM |  | 20 µM |  | 2.97 |  | 3.35 µM | 7.03 |  | 
9 | CNCCCNc1nc2ccccc2c2c(=O)c3cc(OC)ccc3sc12 | 12.8 | 26.8 | 3.49 µM | 1.52 | 2.95 | 1.55 | 3.03 | 1.69 | 3.32 | 1.71 | 3.42 µM | 2.04 | 4.44 µM | 1.67 | 3.28 | 1.69 | 3.39 µM | 5.61 | 1.82 | 2.22
10 | Cc1c(C#N)cccc1[C@@H](C)Nc1nnc(C)c2cnc(N3CCOCC3)cc12 | 13.1 | 48.2 | > 100 µM | 31.4 | > 100 | 24 | > 100 | 21.4 | 72.4 | 14.1 | > 100 µM | 21.1 | 64.6 µM | 17.9 | > 100 | 17.7 | > 100 µM | 81.3 | 53.9 | 18.5
11 | O=C(Nc1ccccc1I(=O)=O)C1CCCCC1 | > 100 | > 100 | > 100 µM | > 100 | > 100 | > 100 | > 100 | > 100 | > 100 | > 100 | > 100 µM | > 100 | > 100 µM | > 100 | > 100 | > 100 | > 100 µM | > 100 | > 100 | 58.5
12 | O=C(O)/C(Cc1ccnc2ccccc12)=N\O |  | > 100 |  |  | > 100 |  | > 100 |  | > 100 |  | > 100 µM |  | > 100 µM |  | > 100 |  | > 100 µM | > 100 |  | 
